The values that follow come from patent US10160747B2, “Compounds and methods for kinase modulation, and indications therefor” (Plexxikon Inc., priority 2016, dated 2018).

Each structure is given as a SMILES string. pIC50: −log10 of the molar value.

The subject of assay [1] is MOLM-14 D835Y (endogenous FLT3 ITD and transfected FLT3 D835Y). As to the kind of experiment: MOLM-14 D835Y cell proliferation assay (CellTiter-Glo). The assay is classed as cell-based. The settings on record: Homo sapiens, MOLM-14, 72 h; 3 d growth, GMean. Summed up: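 MOLM-14 derivatives carrying D835Y or F691L, selected under escalating AC220, were seeded at 1×10^4 cells/well and exposed to an 8-point 1:3 compound series (1 to 0.00046 μM, 0.2% DMSO final) for three days at 37° C., 5% CO2. CellTiter-Glo luminescence (ATP content) versus concentration gave IC50.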
(In ATP-based viability assays light output follows the ATP content of the culture.)

In assay [2] the target is T1, FLT3-ITD (Homo sapiens, UniProt P36888).
T1 sequence (P36888 1-993): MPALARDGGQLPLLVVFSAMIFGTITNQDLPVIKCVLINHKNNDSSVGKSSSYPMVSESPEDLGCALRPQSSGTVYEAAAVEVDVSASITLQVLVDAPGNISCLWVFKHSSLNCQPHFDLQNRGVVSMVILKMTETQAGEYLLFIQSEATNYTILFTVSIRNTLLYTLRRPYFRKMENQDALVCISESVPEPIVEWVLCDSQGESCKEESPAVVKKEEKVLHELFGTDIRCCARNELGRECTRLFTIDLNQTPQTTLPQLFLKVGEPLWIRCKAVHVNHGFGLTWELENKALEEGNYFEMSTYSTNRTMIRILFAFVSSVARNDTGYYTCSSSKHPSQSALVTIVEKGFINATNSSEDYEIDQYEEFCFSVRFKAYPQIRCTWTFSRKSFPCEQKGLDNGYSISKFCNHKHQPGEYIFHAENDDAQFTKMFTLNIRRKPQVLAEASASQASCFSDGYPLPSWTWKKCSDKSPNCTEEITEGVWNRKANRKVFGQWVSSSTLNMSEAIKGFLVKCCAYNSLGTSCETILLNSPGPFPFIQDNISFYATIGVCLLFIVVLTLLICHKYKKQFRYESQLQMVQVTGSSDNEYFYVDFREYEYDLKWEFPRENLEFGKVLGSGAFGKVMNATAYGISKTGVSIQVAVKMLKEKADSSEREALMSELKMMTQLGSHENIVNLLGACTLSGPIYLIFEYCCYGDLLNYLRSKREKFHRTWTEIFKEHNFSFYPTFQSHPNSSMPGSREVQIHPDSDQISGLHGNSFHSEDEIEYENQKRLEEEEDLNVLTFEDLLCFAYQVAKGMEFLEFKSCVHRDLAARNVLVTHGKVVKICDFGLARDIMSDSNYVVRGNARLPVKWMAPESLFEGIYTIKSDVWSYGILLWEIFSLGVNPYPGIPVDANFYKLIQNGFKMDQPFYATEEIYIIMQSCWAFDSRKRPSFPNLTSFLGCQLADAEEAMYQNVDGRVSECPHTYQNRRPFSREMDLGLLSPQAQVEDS
As to the kind of experiment: FLT3-ITD recombinant enzyme kinase assay (AlphaScreen). Particulars: 8 pt; read-out: FLT3_ITD 8 pt: IC50. It counts as biochemical. The procedure: In order to determine the effect of compounds on FLT3 catalytic activity, kinase assays using recombinant enzymes and AlphaScreen® technology have been established. The catalytic activity of c-kit activity was also measured to determine selectivity of the compounds. When the kinases are catalytically active, they phosphorylate a biotinylated peptide substrate on tyrosine residues. Using AlphaScreen® technology, the ability of the compounds to affect the catalytic activity of the kinases can be measured quantitatively. The peptide substrate is immobilized by the AlphaScreen® Streptavidin Donor beads and, upon phosphorylation by a tyrosine kinase, can bind to AlphaScreen® Anti-Phosphotyrosine (PY20) Acceptor beads. Upon excitation of these beads with laser light at 680 nm, singlet oxygen is produced. This singlet oxygen is rapidly quenched, unless the AlphaScreen® Anti-Phosphotyrosine (PY20) Acceptor beads are in close proximity, in which case a proximity signal can be measured at 580 nm. In the presence of catalytic activity, there is a very strong proximity signal. Selective kinase inhibitors affect a decrease in this proximity signal through a decrease in tyrosine phosphorylation of the peptide substrate.
The assay was performed as summarized below.
Poly (Glu4-Tyr) Peptide, biotin conjugate [Biotin-GG(EEEEY)10EE] (SEQ ID NO: 4)
Final concentration=30 nM
Adenosine Triphosphate (ATP)
Final concentration for IC50 determination=10 μM (FLT3-D835Y or FLT3-ITD) or 100 μM (c-KIT)
AlphaScreen® Phosphotyrosine (PY20) Assay Kit
Final concentration=10 μg/mL
Dilute compounds in DMSO to 20× final concentration.
Add 1 μL of compound to each well of 384 well reaction plate (Perkin Elmer #6005359).
Mix enzyme and Poly (Glu4-Tyr) Peptide substrate at 1.33× final concentration in assay buffer.
Mix ATP at 5× final concentration in assay buffer.
Add 15 μL enzyme/substrate mixture to the reaction plate.
Add 4 μL of ATP to the reaction plate.
Mix Streptavidin Donor beads at 6× final concentration in Stop/Detection buffer.
Add 5 μL Streptavidin Donor beads to the reaction plate. Centrifuge 1 minute, shake to mix, and incubate at room temperature for 20 minutes.
Mix Anti-Phosphotyrosine (PY20) Acceptor beads at 6× final concentration in Stop/Detection buffer.
Add 5 μL Anti-Phosphotyrosine (PY20) beads to the reaction plate.
Centrifuge 1 minute, shake to mix, and incubate at room temperature for 60 minutes.
Read plate on Wallac EnVision™ 2103 Multilabel Reader.
For orientation: In Alpha technology, singlet oxygen from a donor bead excites a nearby acceptor bead.

In general, pIC50 refers to −log10 of the IC50, conventionally taken in molar units.

In the case of `N#Cc1ccc(-c2cc3cc(-c4ccc(CC(=O)Nc5cncc(C(F)(F)F)c5)cc4F)cnc3[nH]2)cn1` [Compound P-0195, 2-[4-[2-(6-cyano-3-pyridyl)-1H-pyrrolo[2,3-b]pyridin-5-yl]-3-fluoro-phenyl]-N-[5-(trifluoromethyl)-3-pyridyl]acetamide], the pIC50 in assay [1] and in assay [2] was 5.00 to 10.00 each time.
As to `Cc1cc(-c2cnc3[nH]c(-c4ccccc4)cc3c2)ccc1CC(=O)Nc1cccc(C(F)(F)F)c1` [Compound P-0001, 2-[2-methyl-4-(2-phenyl-1H-pyrrolo[2,3-b]pyridin-5-yl)phenyl]-N-[3-(trifluoromethyl)phenyl]acetamide], the pIC50 in assay [1] and in assay [2] was 5.00 to 10.00 each time.
For the compound `N#Cc1cc(-c2cc3cc(-c4ccc(CC(=O)Nc5ccnc(C(F)(F)F)c5)nc4)cnc3[nH]2)ccn1` [Compound P-0182, 2-[5-[2-(2-cyano-4-pyridyl)-1H-pyrrolo[2,3-b]pyridin-5-yl]-2-pyridyl]-N-[2-(trifluoromethyl)-4-pyridyl]acetamide], the negative-log IC50 (pIC50) in assay [1] and in assay [2] was 5.00 to 10.00 each time.
`COc1ccc(-c2cc3cc(-c4ccc(CC(=O)Nc5cncc(C(F)(F)F)c5)cc4F)cnc3[nH]2)cn1` [Compound P-0196, 2-[3-fluoro-4-[2-(6-methoxy-3-pyridyl)-1H-pyrrolo[2,3-b]pyridin-5-yl]phenyl]-N-[5-(trifluoromethyl)-3-pyridyl]acetamide]: the negative-log IC50 (pIC50) in assay [1] and in assay [2] was 5.00 to 10.00 in each case.
With `COCCn1cc(Nc2ncc(-c3ccc(CC(=O)Nc4cncc(C(F)(F)F)c4)cc3)cn2)cn1` [Compound P-0178, 2-[4-[2-[[1-(2-methoxyethyl)pyrazol-4-yl]amino]pyrimidin-5-yl]phenyl]-N-[5-(trifluoromethyl)-3-pyridyl]acetamide], the negative-log IC50 (pIC50) in assay [1] and in assay [2] was 5.00 to 10.00 throughout.
In the case of `Cn1cnc(Nc2ncc(-c3ccc(CC(=O)Nc4cc(C(F)(F)F)ccn4)c(F)c3)cn2)c1` [Compound P-0096, 2-[2-fluoro-4-[2-[(1-methylimidazol-4-yl)amino]pyrimidin-5-yl]phenyl]-N-[4-(trifluoromethyl)-2-pyridyl]acetamide], the pIC50 in assay [1] and in assay [2] was 5.00 to 10.00 throughout.
`COc1ccc(-c2cc3cc(-c4ccc(CC(=O)Nc5cc(C(F)(F)F)ccn5)cc4F)cnc3[nH]2)cn1` [Compound P-0191, 2-[3-fluoro-4-[2-(6-methoxy-3-pyridyl)-1H-pyrrolo[2,3-b]pyridin-5-yl]phenyl]-N-[4-(trifluoromethyl)-2-pyridyl]acetamide]: the pIC50 in assay [1] and in assay [2] was 5.00 to 10.00 throughout.
In the case of `Cn1cc(Nc2ncc(-c3ccc(CC(=O)Nc4cccnc4)cc3)cn2)cn1` [Compound P-0131, 2-[4-[2-[(1-methylpyrazol-4-yl)amino]pyrimidin-5-yl]phenyl]-N-(3-pyridyl)acetamide], the negative logarithm of the IC50 (pIC50) in assay [1] and in assay [2] was 5.00 to 10.00 each time.
As to `Cn1cc(Nc2ncc(-c3ccc(CC(=O)Nc4cc(C(F)(F)F)ccn4)cc3)cn2)cn1` [Compound P-0139, 2-[4-[2-[(1-methylpyrazol-4-yl)amino]pyrimidin-5-yl]phenyl]-N-[4-(trifluoromethyl)-2-pyridyl]acetamide], the pIC50 in assay [1] and in assay [2] was 5.00 to 10.00 throughout.
Consider `COc1ncc(NC(=O)Cc2ccc(-c3cnc(Nc4cn(C)cn4)nc3)cc2F)cc1C(F)(F)F` [Compound P-0101, 2-[2-fluoro-4-[2-[(1-methylimidazol-4-yl)amino]pyrimidin-5-yl]phenyl]-N-[6-methoxy-5-(trifluoromethyl)-3-pyridyl]acetamide], for which the pIC50 in assay [1] and in assay [2] was 5.00 to 10.00 throughout.
With `Cn1cc(Nc2ncc(-c3ccc(CC(=O)Nc4cccc(C(F)(F)F)n4)cc3)cn2)cn1` [Compound P-0152, 2-[4-[2-[(1-methylpyrazol-4-yl)amino]pyrimidin-5-yl]phenyl]-N-[6-(trifluoromethyl)-2-pyridyl]acetamide], the negative-log IC50 (pIC50) in assay [1] and in assay [2] was 5.00 to 10.00 in each case.
